The values that follow come from patent US9187728B2, “Method for producing hematopoietic stem cells” (Nissan Chemical Industries, Ltd., priority 2010, dated 2015).

In one assay the test system is CD34+ cells. Briefly: Expansion of CD34+ cells using human cord blood-derived CD34+ cells (liquid culture, flow cytometry). In kind it is cell-based. To be noted: Assay Example 2; 1 or 2 μM; 100 ng/mL SCF + 20 ng/mL TPO; 7 days. As to the method:
Human cord blood-derived CD34^+ cells were purchased from Lonza and plated on a 24-well plate (Corning) (10000 cells/1 mL/well). As the culture medium, StemSpan SFEM (StemCell Technologies) containing 100 ng/mL SCF (Wako Pure Chemical Industries) and 20 ng/mL TPO (PeproTech) in terms of final concentration was used, and garcinol (COSMO BIO) dissolved in dimethyl sulfoxide was added to the medium in an amount of 0.1% (v/v) to a final concentration of 5 or 10 μM. Similarly, isogarcinol (Reference Synthetic Example 1) dissolved in dimethyl sulfoxide was added to the medium in an amount of 0.1% (v/v) to a final concentration of 2 or 5 μM. […]
After the cells were incubated in liquid culture at 37° C. for 7 days in a CO2 incubator (5% CO2), the number of viable cells was counted by trypan blue assay. The number of CD34^+CD38^− cells was calculated as follows. […] The stained cells were analyzed with a BD FACSCANTO™ II flow cytometer (Becton, Dickinson and Company) to determined the proportions of CD34^+ cells and CD34^+CD38^− cells, which was multiplied by the number of viable cells to calculate the numbers of CD34^+ cells and CD34^+CD38^− cells. […]
(§1) After the cells were incubated in liquid culture at 37° C. for 7 days in a CO2 incubator (5% CO2), the number of viable cells was counted by trypan blue assay. The number of CD34^+CD38^− cells was calculated in the same manner as in Assay Example 1.
A general note: In flow cytometry, cells or beads pass a laser one at a time.

A further assay concerns CD34+CD38- cells. In words: Expansion of CD34+CD38- cells using human cord blood-derived CD34+ cells (liquid culture, flow cytometry). In kind it is cell-based. The note with it: for expansion activity on CD34+CD38- cells: 7 days; for expansion activity on hematopoietic stem cells: general statement, compared with the other specific compounds. As to the method:
Human cord blood-derived CD34^+ cells were purchased from Lonza and plated on a 24-well plate (Corning) (10000 cells/1 mL/well). As the culture medium, StemSpan SFEM (StemCell Technologies) containing 100 ng/mL SCF (Wako Pure Chemical Industries) and 20 ng/mL TPO (PeproTech) in terms of final concentration was used, and garcinol (COSMO BIO) dissolved in dimethyl sulfoxide was added to the medium in an amount of 0.1% (v/v) to a final concentration of 5 or 10 μM. Similarly, isogarcinol (Reference Synthetic Example 1) dissolved in dimethyl sulfoxide was added to the medium in an amount of 0.1% (v/v) to a final concentration of 2 or 5 μM. As a negative control, the medium containing 0.1% (v/v) dimethyl sulfoxide was used.
After the cells were incubated in liquid culture at 37° C. for 7 days in a CO2 incubator (5% CO2), the number of viable cells was counted by trypan blue assay. The number of CD34^+CD38^− cells was calculated as follows. After the incubation, the cells in the liquid culture was stained with a CD34 antibody (APC, Becton, Dickinson and Company) and a CD38 antibody (P E, Becton, Dickinson and Company), then washed with PBS(−) containing 2% (v/v) FBS and stained with propidium iodide (Sigma-Aldrich Japan) added to a final concentration of 5 μg/mL. The stained cells were analyzed with a BD FACSCANTO™ II flow cytometer (Becton, Dickinson and Company) to determined the proportions of CD34^+ cells and CD34^+CD38^− cells, which was multiplied by the number of viable cells to calculate the numbers of CD34^+ cells and CD34^+CD38^− cells.
Human cord blood-derived CD34^+ cells purchased from the same supplier as in Assay Example 1 were plated on a 24-well plate (Corning) (10000 cells/1 mL/well). As the culture medium, StemSpan SFEM (StemCell Technologies) containing 100 ng/mL SCF (Wako Pure Chemical Industries) and 20 ng/mL TPO (PeproTech) in terms of final concentration was used, and O-monomethylisogarcinol (Reference Synthetic Example 2) dissolved in dimethyl sulfoxide was added to the medium to a final concentration of 1 or 2 μM.
as §1
Human cord blood-derived CD34^+ cells purchased from the same supplier as in Assay Example 1 were plated on a 24-well plate (Corning) (10000 cells/1 mL/well). […]

A further assay relates to HPP-CFC colonies. In words: Expansion of HPP-CFU using human cord blood-derived CD34+ cells (blood cell colony forming assay). In kind it is cell-based. To be noted: then 500 cells/dish MethoCult GF H4435, 12 days, None = 19. As to the method:
The effects of garcinol and isogarcinol as compounds of the present invention on hematopoietic progenitor cells were measured by blood cell colony forming assay. The liquid cell cultures obtained in Assay Example 1 were poured into 3.5-cm Petri dishes with MethoCult GF H4435 culture medium (StemCell Technologies) at 500 cells/dish and incubated in a CO2 incubator (5% CO2, 37° C.) for 12 days. The number of HPP-CFC colonies in each plate was counted under a microscope routinely. The assay was carried out at least in duplicate, and the numbers of HPP-CFC colonies were averaged.

The subject of assay [1] is SCID-repopulating cells (SRC). Briefly: Transplantation of cell culture into immunodeficient (NOD/SCID) mice (SRC assay). In kind it is in vivo, human. The note with it: CD34+ cells cultured with 10 μM, transplanted into irradiated NOD/SCID mice, 8 weeks; vs cells cultured without compound (FIG. 5). As to the method: Human cord blood-derived CD34^+ cells cultured in the presence of 10 μM garcinol (COSMO BIO) in terms of final concentration or in the absence of garcinol (i.e., in a culture medium containing 0.1% (v/v) dimethyl sulfoxide) in the same manner as in Assay Example 1 were transplanted into at least five 7- to 8-week-old NOD/SCID mice by tail vein injection at 4 to 5×10^4 cells/mouse in terms of the initial number of CD34^+ cells after a sublethal dose of irradiation (2.5 Gy). Eight weeks after the transplantation, the mice were killed, and the bone marrow cells were collected from both thighbones. Subsequently, the bone marrow cells were stained with a human CD45 antibody (APC, Becton, Dickinson and Company), then washed with PBS(−) containing 2%(v/v) FBS and stained with propidium iodide (Sigma-Aldrich Japan) added to a final concentration of 5 μg/mL. The stained cells were analyzed by flow cytometry to determined the proportion of human CD45^+ cells in the bone marrow cells.

With `COc1ccc(C(=O)C2=C3OC(C)(C)[C@@H](CC=C(C)C)C[C@@]34C[C@@H](CC=C(C)C)C(C)(C)[C@@](CC=C(C)C)(C2=O)C4=O)cc1O` [O-monomethylisogarcinol, O-Monomethylisogarcinol], the “expansion activity on CD34+ cells” value with CD34+ cells is given as “excellent expansion activity”. In addition, the “expansion activity on CD34+CD38- cells” value in the assay with CD34+CD38- cells (Assay Example 2, 1 or 2 μM, 100 ng/mL SCF + 20 ng/mL TPO, vs absence of compound (FIG. 3)) is given as “excellent expansion activity”.
Consider `C=C(C)[C@@H](CC=C(C)C)C[C@@]12C[C@@H](CC=C(C)C)C(C)(C)[C@@](CC=C(C)C)(C(=O)C(C(=O)c3ccc(O)c(O)c3)=C1O)C2=O` [garcinol, Garcinol], for which the “expansion activity on CD34+CD38- cells” value in the assay with CD34+CD38- cells (Assay Example 3, 10 μM, in the presence of SCF, SCF and TPO, or SCF, TPO and FL, compared with absence of the compound (FIG. 4)) is given as “higher expansion activity”. For the same molecule, the “expansion activity on hematopoietic stem cells” value with CD34+CD38- cells is on record as “especially strong expansion activity”. Further, the “Number of HPP-CFC colonies” value in the assay on HPP-CFC colonies (10 μM in 7-day liquid culture (SCF+TPO)) is 35. Besides, the “SRC expanding effect (proportion of human CD45+ cells in bone marrow)” value in assay [1] is “excellent SRC expanding effect”.
For the molecule `CC(C)=CC[C@H]1C[C@@]23C[C@@H](CC=C(C)C)C(C)(C)[C@@](CC=C(C)C)(C(=O)C(C(=O)c4ccc(O)c(O)c4)=C2OC1(C)C)C3=O` [isogarcinol, Isogarcinol], the “expansion activity on hematopoietic stem cells” value in the assay on CD34+CD38- cells is reported as “especially strong expansion activity”. In addition, the “Number of HPP-CFC colonies” value in the assay with HPP-CFC colonies (5 μM in 7-day liquid culture (SCF+TPO)) came out at 42.
